Experiment [1] addresses T1, fatty acid amide hydrolase (FAAH) (Rattus norvegicus, UniProt P97612).
T1 sequence (P97612 1-579): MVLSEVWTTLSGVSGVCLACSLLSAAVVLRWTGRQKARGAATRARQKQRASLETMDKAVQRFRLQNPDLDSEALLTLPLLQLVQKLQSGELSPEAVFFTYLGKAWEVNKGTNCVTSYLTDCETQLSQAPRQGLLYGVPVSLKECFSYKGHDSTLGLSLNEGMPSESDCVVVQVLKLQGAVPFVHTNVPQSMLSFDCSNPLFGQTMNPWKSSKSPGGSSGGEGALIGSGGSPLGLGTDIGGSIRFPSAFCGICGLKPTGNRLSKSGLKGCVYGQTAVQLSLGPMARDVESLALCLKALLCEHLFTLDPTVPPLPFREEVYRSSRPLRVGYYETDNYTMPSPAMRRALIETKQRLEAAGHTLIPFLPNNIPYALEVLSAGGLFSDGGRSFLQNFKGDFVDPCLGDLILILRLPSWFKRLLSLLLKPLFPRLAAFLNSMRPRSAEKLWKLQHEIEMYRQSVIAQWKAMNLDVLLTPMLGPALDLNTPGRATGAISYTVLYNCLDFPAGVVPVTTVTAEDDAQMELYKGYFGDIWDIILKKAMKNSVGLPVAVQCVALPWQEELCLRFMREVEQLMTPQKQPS
It is filed as biochemical.

Experiment [2] deals with T2, monoacylglycerol lipase (MAGL) (Homo sapiens, UniProt Q99685).
T2 sequence (Q99685 1-303): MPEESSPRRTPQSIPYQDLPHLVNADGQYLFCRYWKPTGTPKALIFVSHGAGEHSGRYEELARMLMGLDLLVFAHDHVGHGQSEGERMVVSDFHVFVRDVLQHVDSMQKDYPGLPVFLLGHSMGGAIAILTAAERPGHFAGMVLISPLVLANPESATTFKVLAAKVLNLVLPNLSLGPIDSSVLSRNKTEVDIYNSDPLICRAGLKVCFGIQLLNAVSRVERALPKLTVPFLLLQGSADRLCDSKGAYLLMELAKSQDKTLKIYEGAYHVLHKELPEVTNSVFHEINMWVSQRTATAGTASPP
The class given is biochemical.

In the case of AM5206, the IC50 stood at 0.042 ± 0.006 µM in experiment [1] and 15.1 µM in experiment [2].

The term IC50 denotes the concentration needed to halve the response being measured.
